This experiment deals with T1, Branched-chain-amino-acid aminotransferase, mitochondrial (Homo sapiens, UniProt O15382).
T1 sequence (O15382 whole entry): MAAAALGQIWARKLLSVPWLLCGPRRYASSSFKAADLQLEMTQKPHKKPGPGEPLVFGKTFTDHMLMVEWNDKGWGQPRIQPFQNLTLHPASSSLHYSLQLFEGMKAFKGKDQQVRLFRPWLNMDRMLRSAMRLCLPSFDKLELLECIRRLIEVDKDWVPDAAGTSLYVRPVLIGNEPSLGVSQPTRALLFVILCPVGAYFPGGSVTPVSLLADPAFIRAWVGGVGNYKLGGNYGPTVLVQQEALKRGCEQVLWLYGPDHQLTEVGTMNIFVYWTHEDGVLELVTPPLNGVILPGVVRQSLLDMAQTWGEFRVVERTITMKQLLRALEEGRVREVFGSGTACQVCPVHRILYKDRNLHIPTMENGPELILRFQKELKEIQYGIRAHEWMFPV
Nature of the experiment: Inhibition of human BCATm after 10 mins by fluorescent assay.
In the case of `CNC(=O)c1ccc(-c2cccc(C(=O)O)c2)cc1OC1CCN(C(=O)c2cc(Br)ccc2NC(=O)OC(C)(C)C)C1` (stereo not given), the IC50 (in general, the point on the concentration scale where inhibition reaches its midpoint) is > 100 µM.

Turning to `CNC(=O)c1ccc(-c2cccc(C(=O)O)c2)cc1OC1CCN(C(=O)c2cc(Br)ccc2N)C1` (stereo not given), the IC50 was > 100 µM.

For `CNC(=O)c1ccc(-c2cccc(C(=O)O)c2)cc1OC1CCN(C(=O)c2ccc(Br)s2)C1` (stereo not given), it took 74.1 µM to reach half-maximal inhibition (IC50).

Take `CNC(=O)c1ccc(-c2ccccc2NS(C)(=O)=O)cc1O[C@@H]1CCN(C(=O)c2ccc(Br)s2)C1`: it took 2 µM to reach half-maximal inhibition (IC50).

Consider `CNC(=O)c1ccc(-c2ccccc2NS(C)(=O)=O)cc1O[C@@H]1CCN(C(=O)c2ccc(Cl)s2)C1`, for which the IC50 was found to be 2.8 µM.

`CNC(=O)c1ccc(-c2ccccc2NS(C)(=O)=O)cc1O[C@@H]1CCN(C(=O)c2ccc(C#N)s2)C1` showed an IC50 of 15.1 µM.

For `CNC(=O)c1ccc(-c2ccccc2C)cc1O[C@@H]1CCN(C(=O)c2ccc(Br)s2)C1`, the IC50 is 64.6 µM.

For `CNC(=O)c1ccc(-c2ccccc2)cc1O[C@@H]1CCN(C(=O)c2ccc(Br)s2)C1`, the half-maximal inhibitory concentration (IC50) was > 100 µM.

Consider `CNC(=O)c1ccccc1OC1CCN(C(=O)c2ccc(Br)s2)C1` (stereo not given), for which the concentration for half-maximal inhibition (IC50) is > 100 µM.

`CNC(=O)c1ccc(-c2ccccc2NS(C)(=O)=O)cc1OC1CCN(C(=O)c2ccc(Br)s2)C1` (racemic) returned an IC50 of 3.9 µM.
